Reference: PubChem BioAssay (NCI)
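Assay format: 96-well plates, 48-hour exposure. Definition used: TGI = concentration required for complete inhibition of growth.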

Key:
Assay in all cases: DTP human tumour cell line panel, 48 h
[1] = system: SW-620 colon
[2] = system: UACC-62 melanoma
[3] = system: TK-10 renal
[4] = system: COLO 205 colon
[5] = system: U251 CNS
[6] = system: IGROV1 ovarian
[7] = system: 786-0 renal
[8] = system: NCI-H226 lung
[9] = system: NCI-H522 lung
[10] = system: SN12C renal

SMILES	TGI [1]	TGI [2]	TGI [3]	TGI [4]	TGI [5]	TGI [6]	TGI [7]	TGI [8]	TGI [9]	TGI [10]
CCCCNC1CCC2(SCCS2)c2[nH]c3ccccc3c21 (centres undefined)	> 82.6 µM	> 83.8 µM	45.1 µM	> 62.3 µM	97.3 µM	> 100 µM	80 µM	> 73.7 µM	23 µM	> 100 µM
Clc1ccc(-c2ccc(-c3nnc(CCc4nnc(-c5ccc(-c6ccc(Cl)cc6)o5)o4)o3)o2)cc1	> 100 µM	> 100 µM	> 86 µM	> 100 µM	> 100 µM	> 100 µM	> 100 µM	> 100 µM	> 100 µM	> 100 µM
COc1ccc(-c2nc(N)c(C#N)c3c2CCS(=O)(=O)c2ccc(C)cc2-3)cc1OC	> 100 µM	51.7 µM	> 100 µM	79.5 µM	> 100 µM	> 100 µM	> 100 µM	> 100 µM	25.1 µM	> 100 µM
O=C1Oc2ccccc2C(=O)/C1=C/N1C(=O)N/C(=C\c2ccccc2O)C1=O	> 100 µM	> 100 µM	> 100 µM	> 100 µM	> 100 µM	> 100 µM	> 100 µM	> 100 µM	> 100 µM	> 100 µM
C1=C\SS/C=C\SS/C=C\SS/C=C\SS/1	> 100 µM	> 100 µM	> 100 µM	> 100 µM	> 100 µM	> 100 µM	> 100 µM	> 100 µM	84.4 µM	> 100 µM
O=C(Cn1c(=O)oc2ccc(C(=O)c3ccc(F)cc3)cc21)c1ccc([N+](=O)[O-])cc1	> 100 µM	> 100 µM	> 100 µM	> 100 µM	> 100 µM	78.3 µM	> 100 µM	> 100 µM	80.4 µM	> 100 µM
CC[C@@]1(O)C(=O)OCc2c1cc1n(c2=O)Cc2c-1nc1ccccc1c2/C=N\NC(=O)C(N)CC(C)C (some centres undefined)	> 40.2 µM	0.0748 µM	> 100 µM	12.1 µM	0.646 µM	> 22 µM	> 100 µM	0.975 µM	1.6 µM	1.61 µM
Cc1ccc(S(=O)(=O)c2scc(-c3ccccc3)c2C)cc1	> 100 µM	> 100 µM	> 100 µM	> 100 µM	> 100 µM	> 100 µM	> 100 µM	> 100 µM	> 100 µM	> 100 µM
O=c1[nH]c(=O)n(C2CC(O)C(CO)O2)cc1I (centres undefined)	> 100 µM	> 100 µM	> 100 µM	> 100 µM	> 100 µM	> 100 µM	> 100 µM	> 100 µM	> 100 µM	> 100 µM
CCOC(=O)c1cccc(NC(=O)CCl)c1	16.5 µM	6.85 µM	15 µM	23.5 µM	2.95 µM	8.11 µM	4.02 µM	26 µM	3.49 µM	4.6 µM
O=C(Cc1ccccc1)NCCc1ccc(O)c(O)c1	> 100 µM	> 100 µM	> 100 µM	> 100 µM	> 100 µM	> 100 µM	> 100 µM	> 100 µM	> 100 µM	> 100 µM
C/C=C/[C@@]1(OC(=O)c2ccccc2)C[C@@H]2CCCC[C@@H]21	48.3 µM	32.9 µM	36 µM		29.8 µM	32.1 µM	31.8 µM	30.9 µM	29.9 µM	36.7 µM
C=CCNC(=S)Nc1sc2c(c1C(=O)OCC)CC(C)CC2 (centres undefined)	> 100 µM	46.7 µM	63.7 µM	35.6 µM	> 100 µM	> 100 µM	> 100 µM	50.7 µM	46.4 µM	82.8 µM
Cc1nc2c(=S)[nH]ncc2[nH]1	> 100 µM	> 100 µM	> 100 µM	> 100 µM	> 100 µM	> 100 µM	> 100 µM	> 100 µM	> 100 µM	> 100 µM
CC(=O)OCC1OC(Nc2[nH]c(=O)n(C)c(=O)c2-c2csc(N)n2)C(OC(C)=O)C(OC(C)=O)C1OC(C)=O (centres undefined)	> 100 µM	> 100 µM	> 100 µM	> 100 µM	> 100 µM	> 100 µM	> 100 µM	> 100 µM	> 100 µM	> 100 µM
O=S(=O)(c1ccc(Br)cc1)n1c2ccc(Br)cc2c2nc3ccccc3nc21	> 100 µM	> 100 µM	> 100 µM	> 100 µM	90.3 µM	> 100 µM	> 100 µM	> 100 µM	> 100 µM	> 100 µM
COc1c2cc([N+](=O)[O-])cc1CNC(=O)CN1CCOCCOCCN(CCOCCOCC1)CC(=O)NC2	> 100 µM	> 100 µM	> 100 µM	> 100 µM	> 100 µM	> 100 µM	> 100 µM	> 100 µM	> 100 µM	> 100 µM
c1ccc(C2=NC3(CCCCC3)N(c3nc4ccccc4s3)N2)nc1	> 100 µM	> 100 µM	52.8 µM	41.4 µM	49 µM	> 100 µM	42.2 µM	65.6 µM	> 100 µM	69.9 µM
CN(C)CCNc1ccc(C(=O)NCCCN(C)CCCNC(=O)c2ccc(NCCN(C)C)c3c(=O)c4ccccc4[nH]c23)c2[nH]c3ccccc3c(=O)c12	2.36 µM	0.776 µM	6.94 µM	0.727 µM	0.589 µM	0.229 µM	1.66 µM	0.148 µM	0.0685 µM	1.02 µM
Cc1ccc(S(=O)(=O)N/N=C/c2oc(-c3cccc([N+](=O)[O-])c3)c(-c3cccc([N+](=O)[O-])c3)c2[N+](=O)[O-])cc1	> 100 µM	49.3 µM	> 100 µM	> 100 µM	> 100 µM	91.2 µM	> 100 µM	> 100 µM	28.4 µM	> 100 µM
O=C1C2CCCCC2C(=O)N1n1c(Cc2ccc(Cl)cc2)n[nH]c1=O (centres undefined)	> 100 µM	> 100 µM	> 100 µM	> 100 µM	> 100 µM	> 100 µM	> 100 µM	> 100 µM	> 100 µM	> 100 µM
